Results as given in patent US4728509A, “Aqueous liquid preparation” (Takeda Chemical Industries, Ltd., priority 1985, dated 1988).

Test: Solubility test of compound (a) with and without solubilizers (Experimental Example 1; HPLC of filtrate)
Conditions: not given
Procedure: Solubility tests of the compound (a) (2-amino-7-isopropyl-5-oxo-5H-[1]-benzopyrano[2,3-b]pyridine-3-carboxylic acid) employing the solubilizers of this invention and, for comparison, employing various conventional solubilizers were performed.
The solubility was measured by the following manner:
An excess amount of the compound (a) was added to a given volume of a phosphate buffer, the mixture was sufficiently stirred, then the pH was adjusted to a given level, the mixture was allowed to stand at room temperature (25° C.) for 48 hours, the resultant was subjected to filtration with 0.45μ membrane filter, followed by measuring the concentration of the compound (a) in the filtrate by means of high performance liquid chromatography.

Compound	effect for improving the solubility of compound (a)
NNC(=O)c1ccncc1 [isoniazid, reference compound]	some improvement
OC[C@H]1O[C@@H]2O[C@H]3[C@H](O)[C@@H](O)[C@@H](O[C@H]4[C@H](O)[C@@H](O)[C@@H](O[C@H]5[C@H](O)[C@@H](O)[C@@H](O[C@H]6[C@H](O)[C@@H](O)[C@@H](O[C@H]7[C@H](O)[C@@H](O)[C@@H](O[C@H]8[C@H](O)[C@@H](O)[C@@H](O[C@H]1[C@H](O)[C@H]2O)O[C@@H]8CO)O[C@@H]7CO)O[C@@H]6CO)O[C@@H]5CO)O[C@@H]4CO)O[C@@H]3CO [β-cyclodextrin]	excellent effect
Polyoxyethylene sorbitan monooleate [Tween 80, reference compound]	less effective
polyvinylpyrrolidone	excellent effect

Same assay, conditions: in words; substance used as solubilizer

Compound	effect for improving the solubility of compound (a)
O=C([O-])c1ccccc1O.[Na+] [sodium salicylate, reference compound]	less effective
NC(N)=O [urea, reference compound]	less effective
